Columns and labels:
SSTR4 [1] = target: T1, SSTR4 (Homo sapiens, UniProt P31391); test: Inhibition of forskolin stimulated cAMP in CHO-K1 cells overexpressing SSTR4; assay type: cell-based; details: read-out: SSTR4 Activity pEC50 (converted)
T1 construct: host or cells: CHO-K1
Summary of the method: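 CHO-K1 cells overexpressing SSTR4 treated 30 min at room temperature with compound in Krebs Ringer buffer containing 0.5% BSA, 300 μM IBMX and 350 nM forskolin. Intracellular cAMP measured by HTRF LANCE Ultra (665/615 nm); pEC50 values reported.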

SSTR4 [2] = target: T1, SSTR4; test: SSTR4 I-125 somatostatin competition binding assay (CHO-K1 membranes); details: competition with I-125 somatostatin, membranes from CHO-K1 overexpressing SSTR4; read-out: SSTR4 Binding pIC50 (converted)
Protocol: SSTR4 I-125 Somatostatin Competition Binding Assay
Membranes from CHO-K1 cells overexpressing SSTR4 are purchased from Perkin Elmer (catalog number ES-524-M400UA). Test compounds are suspended in DMSO and then diluted in assay buffer (25 mM HEPES pH 7.4, 10 mM MgCl2, 1 mM CaCl2), 0.5% BSA) plus 0.2 nM I-125 labeled somatostatin (Perkin Elmer catalog number NEX389). Fifty μL of compound/I-125 somatostatin in assay buffer are added per well to 96-well poly-propylene plate. Then 1 μg of SSTR4 membranes in 50 μL assay buffer are added per well. The Plate is incubated for 60 minutes at room temperature. FilterMat A filters (Perkin Elmer catalog number 1450-421) are pre-soaked in 0.5% PEI (Sigma catalog number P3143). The contents of the assay plate are transferred to filters with a TomTech harvester and washed 5 times with 20 mM HEPES, 100 mM NaCl. The filters are dried in a microwave oven then transferred to sample bag containing a scintillator sheet (Perkin Elmer catalog number 1450-441). The scintillator sheets are melted to filters using a heat block. The filters are then read in a MicroBeta scintillation counter. Binding Ki curves are generated using Activity Base for Screening Data Management and the results are reported as pIC50.

SSTR1 = target: T2, SSTR1 (Homo sapiens, UniProt P30872); test: SSTR1 I-125 somatostatin competition binding assay for selectivity versus SSTR1 (CHO-K1 membranes); details: competition with I-125 somatostatin, membranes from CHO-K1 overexpressing SSTR1; read-out: SSTR1 Binding pIC50 (converted)
T2 construct: purchased Perkin Elmer ES-520-M400UA; host or cells: CHO-K1 membranes
T2 sequence (P30872 whole entry): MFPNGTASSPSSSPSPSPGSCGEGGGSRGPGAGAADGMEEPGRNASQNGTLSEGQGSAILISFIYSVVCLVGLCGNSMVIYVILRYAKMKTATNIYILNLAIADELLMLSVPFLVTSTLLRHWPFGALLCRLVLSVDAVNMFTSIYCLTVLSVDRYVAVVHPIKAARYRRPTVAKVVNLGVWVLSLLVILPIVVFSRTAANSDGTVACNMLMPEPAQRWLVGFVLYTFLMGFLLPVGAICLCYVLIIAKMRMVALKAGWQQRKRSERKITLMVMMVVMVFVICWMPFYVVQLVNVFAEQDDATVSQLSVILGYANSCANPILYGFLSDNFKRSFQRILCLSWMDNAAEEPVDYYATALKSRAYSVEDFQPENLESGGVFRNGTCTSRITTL
Protocol: SSTR1 I-125 Somatostatin Competition Binding Assay for Selectivity Versus SSTR1
Membranes from CHO-K1 cells overexpressing SSTR1 are purchased from Perkin Elmer (catalog number ES-520-M400UA). Test compounds are suspended in DMSO and then diluted in assay buffer (25 mM HEPES pH 7.4, 10 mM MgCl2, 1 mM CaCl2), 0.5% BSA) plus 0.4 nM I-125 labeled somatostatin (Perkin Elmer catalog number NEX389). Fifty μL of compound/I-125 somatostatin in assay buffer are added per well to 96-well poly-propylene plate. Then 10 μg of SSTR1 membranes in 50 μL assay buffer are added per well. The plate is incubated for 60 minutes at room temperature. FilterMat A filters (Perkin Elmer catalog number 1450-421) are pre-soaked in 0.5% PEI (Sigma catalog number P3143). The contents of the assay plate are transferred to filters with a TomTech harvester and washed 5 times with 20 mM HEPES, 100 mM NaCl. The filters are dried in a microwave oven then transferred to sample bag containing a scintillator sheet (Perkin Elmer catalog number 1450-441). The scintillator sheets are melted to the filters using a heat block. The filters are then read in a MicroBeta scintillation counter. Binding Ki curves are generated using Activity Base for Screening Data Management and the results are reported as pIC50.

T1 sequence (P31391 whole entry): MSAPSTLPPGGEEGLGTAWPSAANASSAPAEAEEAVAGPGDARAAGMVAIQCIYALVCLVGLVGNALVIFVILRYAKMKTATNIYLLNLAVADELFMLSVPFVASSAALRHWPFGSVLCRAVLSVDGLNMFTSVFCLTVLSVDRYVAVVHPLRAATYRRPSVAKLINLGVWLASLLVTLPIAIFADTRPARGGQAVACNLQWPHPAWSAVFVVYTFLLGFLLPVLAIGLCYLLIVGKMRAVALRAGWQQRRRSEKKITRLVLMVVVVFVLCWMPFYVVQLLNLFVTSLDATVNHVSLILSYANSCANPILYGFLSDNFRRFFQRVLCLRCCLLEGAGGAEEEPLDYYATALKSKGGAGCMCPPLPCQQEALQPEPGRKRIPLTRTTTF

| SMILES | EC50 (SSTR4 [1]) [nM] | IC50 (SSTR4 [2]) [nM] | IC50 (SSTR1) [µM] |
| --- | --- | --- | --- |
| CN1CCCCC1CC(=O)NC(C)(C)c1nn(C)c2ccccc12 (stereo not drawn) [Example 2, N-(2-(1-methyl-1H-indazol-3-yl)propan-2-yl)-2-(1-methylpiperidin-2-yl)acetamide] | 6.31 | 63.1 | 3.16 |
| CN1CCC[C@@H]1CC(=O)NC(C)(C)c1nn(C)c2ccccc12 [Example 3, (R)-N-(2-(1-methyl-1H-indazol-3-yl)propan-2-yl)-2-(1-methylpyrrolidin-2-yl)acetamide] | 25.1 | 200 | 5.01 |
| CN1CCC[C@H]1CC(=O)NC(C)(C)c1nn(C)c2ccccc12 [Example 4, (S)-N-(2-(1-methyl-1H-indazol-3-yl)propan-2-yl)-2-(1-methylpyrrolidin-2-yl)acetamide] | 25.1 | 158 | 10 |
| CN1CCCCC1CC(=O)NC(C)(C)c1cccc(Cl)c1 (stereo not drawn) [Example 11, N-(2-(3-chlorophenyl)propan-2-yl)-2-(1-methylpiperidin-2-yl)acetamide] | 39.8 | 200 | 25.1 |
| Cc1cccc2c(C(C)(C)NC(=O)C[C@H]3CCCN3C)nccc12 [Example 17, (R)-N-(2-(5-methylisoquinolin-1-yl)propan-2-yl)-2-(1-methylpyrrolidin-2-yl)acetamide] | 3.98 | 100 | 5.01 |
| Cc1cccc2c(C(C)(C)NC(=O)C[C@H]3CCCN3C)noc12 [Example 19, (R)-N-(2-(7-methylbenzo[d]isoxazol-3-yl)propan-2-yl)-2-(1-methylpyrrolidin-2-yl)acetamide] | 12.6 | 126 | 10 |
| Cc1cccc2c(C(C)(C)NC(=O)C[C@@H]3CCCN3C)noc12 [Example 21, (S)-N-(2-(7-methylbenzo[d]isoxazol-3-yl)propan-2-yl)-2-(1-methylpyrrolidin-2-yl)acetamide] | 12.6 | 79.4 | 25.1 |

Second part, the compound after the results:

| EC50 (SSTR4 [1]) [nM] | IC50 (SSTR4 [2]) [nM] | IC50 (SSTR1) [µM] | SMILES |
| --- | --- | --- | --- |
| 3.98 | 50.1 | 5.01 | CC(C)(NC(=O)CCN1CCCC1)c1nccc2ccccc12 [Example 5, N-(2-(isoquinolin-1-yl)propan-2-yl)-3-(pyrrolidin-1-yl)propanamide] |
| 1.58 | 25.1 | 2.51 | CN1CCCCC1CC(=O)NC(C)(C)c1nccc2ccccc12 (stereo not drawn) [Example 6, N-(2-(isoquinolin-1-yl)propan-2-yl)-2-(1-methylpiperidin-2-yl)acetamide] |
| 3.98 | 79.4 | 5.01 | Cc1cccc2c(C(C)(C)NC(=O)CC3CCCCN3C)nccc12 (stereo not drawn) [Example 7, N-(2-(5-methylisoquinolin-1-yl)propan-2-yl)-2-(1-methylpiperidin-2-yl)acetamide] |
| 12.6 | 100 | 3.16 | CN1CCC[C@@H]1CC(=O)NC(C)(C)c1nccc2ccccc12 [Example 16, (R)-N-(2-(isoquinolin-1-yl)propan-2-yl)-2-(1-methylpyrrolidin-2-yl)acetamide] |
| 7.94 | 100 | 7.94 | Cc1cccc2c(C(C)(C)NC(=O)C[C@@H]3CCCN3C)nccc12 [Example 18, (S)-N-(2-(5-methylisoquinolin-1-yl)propan-2-yl)-2-(1-methylpyrrolidin-2-yl)acetamide] |
| 7.94 | 63.1 | 2.51 | Cc1cc2ccccc2c(C(C)(C)NC(=O)C[C@@H]2CCCN2C)n1 [Example 22, (S)-N-(2-(3-methylisoquinolin-1-yl)propan-2-yl)-2-(1-methylpyrrolidin-2-yl)acetamide] |
| 25.1 | 1000 | 7.94 | CC(C)(NC(=O)C[C@@H]1CCCN1)c1nccc2ccccc12 [Example 23, (S)-N-(2-(isoquinolin-1-yl)propan-2-yl)-2-(pyrrolidin-2-yl)acetamide] |

From patent publication US20230150981A1, “N-HETEROARYLALKYL-2-(HETEROCYCLYL AND HETEROCYCLYLMETHYL) ACETAMIDE DERIVATIVES AS SSTR4 AGONISTS” (Takeda Pharmaceutical Compnay Limited, priority 2020, published 2023)
